# Data as given in publication PMC10689700, “Kaemtakols A–D, highly oxidized pimarane diterpenoids with potent anti-inflammatory activity from Kaempferia takensis” (Natural Products and Bioprospecting, 2023).
# Tests used:
# [1] = system: NO production in RAW 264.7 macrophage cells; assay: Inhibition of LPS-induced NO production in RAW 264.7 macrophage cells (Griess reaction); assay type: cell-based, murine; conditions: Mus musculus; for EC50: RAW264.7 cells, LPS 0.25 μg/mL, 24 h, read-out: EC50, Nitric oxide (LPS-induced NO production); for IC50: RAW264.7, LPS-triggered RAW 264.7 macrophage cells, read-out: IC50 of inhibiting nitric oxide production
# Method: (§1) Inhibition of NO production in LPS-activated murine macrophages (RAW 264.7 cells) The inhibitory assay followed the methods described previously with some modifications. RAW 264.7 cells were seeded at 3 × 10^4 cells/well in a 96-well flat bottom plate and cultured in DMEM high glucose supplemented with 10% FBS, 1% penicillin–streptomycin, and 1% HEPES. The plates were initially incubated at 37 °C for 24 h under 5% CO2 atmosphere. Thereafter, LPS (0.25 μg/mL) in the absence or presence of different concentrations of kaemtakols (100, 10, 1, 0.1, 0.01, and 0.001 μg/mL) were introduced into the culture plate and then incubated further for 24 h under the same condition. Aminoguanidine hydrochloride (iNOS inhibitor) was also added as a positive control. The nitrite accumulation in the media was determined by the Griess reaction. The 75 μL of each culture supernatant was mixed with an equivalent amount of Griess reagent and the resulting mixture was incubated at room temperature for additional 10 min. Then, the absorbance at 546 nm was measured using a multimode microplate reader (ENVISION). The cytotoxicity of kaemtakols against RAW 264.7 was determined by a standard MTT assay.
# [2] = system: NF-κB in HaCaT cells; assay: Inhibition of cytokine-induced NF-κB nuclear translocation in HaCaT human skin cells (high-content imaging); assay type: cell-based; conditions: cytokine cocktail TNF-α, IL-1β, IL-6, read-out: EC50, HaCaT cell (NF-κB production by cytokine induced inflammation)
# Method: Assessment of inhibitory effects on NF-κB nuclear translocation in human skin HaCaT cells
# The assay followed the methods described previously with some modifications. Human skin cells (HaCaT cells) were seeded at 5 × 10^4 cells/well in a 96-well black flat-bottom plate, using DMEM (Dulbecco’s Modified Eagle Medium) high glucose supplemented with 10% FBS and 1% penicillin–streptomycin. The plates were then incubated at 37 °C for 24 h under 5% CO2 atmosphere. Following the initial incubation, a range of concentrations (100, 50, 25, 12.5, 6.25, 3.125 μM) of kaemtakols were introduced to the cells, and a subsequent 1-h incubation at 37 °C with 5% CO2 was carried out. Afterward, a cytokine cocktail comprising TNF-α (10 ng/mL), IL-1β (10 ng/mL), and IL-6 (10 ng/mL), along with the same concentration range of kaemtakols, was introduced to the culture plates and incubated at 37 °C with 5% CO2 for additional 30 min. Thereafter, the treated cells were fixed with 100% methanol at -20 °C for 10 min. The fixed cells underwent triple washes with DPBS before being exposed to a blocking solution (3% BSA) at room temperature for 60 min. Subsequently, a primary antibody (anti-NF-κB), a Rabbit monoclonal antibody, was introduced into the culture plate at a 1:500 ratio in DPBS and incubated at 4 °C overnight. Afterward, the culture plate was washed with DPBS three times. A secondary antibody (Alexa Fluor 488-conjugated goat anti-rabbit IgG) at a 1:500 ratio in DPBS was added to the culture plate and incubated for 1 h at room temperature in the dark. Simultaneously, Hoechst (at a 1:1,000 ratio in DPBS) was also added to the culture plate. The translocation of NF-κB in cells treated with the cytokine cocktail and kaemtakols was subsequently detected using a high-content imaging system (Operetta). The cell viability was determined by Hoechst DNA staining (Operetta).
# [3] = Cytotoxicity against RAW 264.7 cells (MTT assay); assay type: cell-based, murine; conditions: mouse; for viability at 24 h, 10 µM: at 10 μM, read-out: % Cell viability At 10 μM; for viability at 24 h, 100 µM: at 100 μM, read-out: % Cell viability At 100 μM
# Method: as §1, with “The” for “Inhibition of NO production in LPS-activated murine macrophages (RAW 264.7 cells) The”
Compound,EC50 [1],EC50 [2],"viability at 24 h, 10 µM [3]","viability at 24 h, 100 µM [3]",IC50 [1]
"CC(=O)OC1CCC(C)(C)C(C=O)C12COC(=O)C1=C2C2CC3C1C3(C)C2 (stereo not drawn) [Compound 4, 1α-acetoxy-13β-methyl-6,7-seco-7,20-olide-8,9-tricyclo[3.2.1.0^2,7]octane-isopimara-8-en-6-al]",18.8 µM,> 100 µM,89.7%,1.55%,
"C=C[C@]1(C)C=C2[C@@H](OC(C)=O)[C@@]3(O)OC[C@]4([C@@H]3C(C)(C)CC[C@@H]4O)[C@@]2(O)CC1 [Compound 3, 1α,6α,9α-trihydroxy-7β-acetoxy-6β,20-epoxyisopimara-8(14),15-diene]",29.9 µM,> 100 µM,92.5%,97.2%,
"C=C[C@]1(C)C=C2[C@](O)(CC1)[C@]13CO[C@@]2(O)[C@@H](OC(C)=O)[C@H]1C(C)(C)CC[C@@H]3O [Compound 2, 1α,7α,9α-trihydroxy-6β-acetoxy-7β,20-epoxyisopimara-8(14),15-diene]",0.69 µM,> 100 µM,83%,20.8%,0.69 µM
"C=CC1(C)C=C2C3(O)OCC4(C(OC(C)=O)CCC(C)(C)C4C3OC(C)=O)C2(O)CC1 (stereo not drawn) [Compound 1, 7α,9α-dihydroxy-1α,6β-diacetoxy-7β,20-epoxyisopimara-8(14),15-diene]",104 µM,> 100 µM,95.7%,68.5%,104 µM
